#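 48-hour exposure; five concentrations; linearly interpolated endpoints. GI50 is the concentration that inhibits growth by half.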 Activity calls are given as the source filed them. Cut-off read from the data, not from the text of the source: active = GI50 up to about 1.1 µM and inactive = higher.
# Key:
# Assay in all cases: NCI-60 cell line screen, 48 h
# PC-3 = test system: PC-3
# UACC-257 = test system: UACC-257
# HCC 2998 = test system: HCC 2998
# HOP-92 = test system: HOP-92
# HCT-15 = test system: HCT-15
# MDA-MB-231 = test system: MDA-MB-231
# OVCAR-8 = test system: OVCAR-8
# M14 = test system: M14
# TK-10 = test system: TK-10
# 786-0 = test system: 786-0
# NCI-H23 = test system: NCI-H23
# CAKI-1 = test system: CAKI-1
# Malme-3M = test system: Malme-3M
# SK-MEL-28 = test system: SK-MEL-28
# COLO 205 = test system: COLO 205
# Hs-578T = test system: Hs-578T
# SW-620 = test system: SW-620
# SK-OV-3 = test system: SK-OV-3
# DU-145 = test system: DU-145
# SNB-75 = test system: SNB-75
# MOLT-4 = test system: MOLT-4
# HT-29 = test system: HT-29
# A498 = test system: A498
# SF-268 = test system: SF-268
# OVCAR-5 = test system: OVCAR-5
# NCI-H522 = test system: NCI-H522
# HL-60 = test system: HL-60
# K562 = test system: K562
# SN12C = test system: SN12C
# RPMI-8226 = test system: RPMI-8226
# BT-549 = test system: BT-549
# SK-MEL-2 = test system: SK-MEL-2
# MDA-MB-435 = test system: MDA-MB-435
# OVCAR-4 = test system: OVCAR-4
# NCI-H460 = test system: NCI-H460
# SK-MEL-5 = test system: SK-MEL-5
# U-251 = test system: U-251
# MCF7 = test system: MCF7
# CCRF-CEM = test system: CCRF-CEM
# KM12 = test system: KM12
# HCT-116 = test system: HCT-116
# T47D = test system: T47D
# UACC-62 = test system: UACC-62
# ACHN = test system: ACHN
# RXF 393 = test system: RXF 393
# UO-31 = test system: UO-31
# SF-295 = test system: SF-295
# LOX IMVI = test system: LOX IMVI
# NCI/ADR-RES = test system: NCI/ADR-RES
# NCI-H226 = test system: NCI-H226
# HOP-62 = test system: HOP-62
# MDA-N = test system: MDA-N
# A549 = test system: A549
# EKVX = test system: EKVX
# SF-539 = test system: SF-539
# OVCAR-3 = test system: OVCAR-3
# IGROV-1 = test system: IGROV-1
# SNB-19 = test system: SNB-19
compound,measurement,setting,value
CN(C)CCNc1nc2ccccc2c2c1C(=O)c1ccccc1-2,GI50,PC-3,0.27 µM (active)
same,GI50,UACC-257,0.538 µM (active)
same,GI50,HCC 2998,0.134 µM (active)
same,GI50,HOP-92,0.327 µM (active)
same,GI50,HCT-15,0.15 µM
same,GI50,MDA-MB-231,0.542 µM (active)
same,GI50,OVCAR-8,0.195 µM (active)
same,GI50,M14,0.316 µM (active)
same,GI50,TK-10,0.513 µM (active)
same,GI50,786-0,0.132 µM (active)
same,GI50,NCI-H23,0.316 µM (active)
same,GI50,CAKI-1,0.124 µM (active)
same,GI50,Malme-3M,0.251 µM (active)
same,GI50,SK-MEL-28,0.471 µM (active)
same,GI50,COLO 205,0.303 µM (active)
same,GI50,Hs-578T,2.1 µM (inactive)
same,GI50,SW-620,0.137 µM (active)
same,GI50,SK-OV-3,0.703 µM (active)
same,GI50,DU-145,0.149 µM (active)
same,GI50,SNB-75,0.564 µM (active)
same,GI50,MOLT-4,0.01 µM (active)
same,GI50,HT-29,0.191 µM (active)
same,GI50,A498,0.163 µM (active)
same,GI50,SF-268,0.279 µM (active)
same,GI50,OVCAR-5,0.367 µM (active)
same,GI50,NCI-H522,0.211 µM (active)
same,GI50,HL-60,< 0.0432 µM (active)
same,GI50,K562,0.163 µM (active)
same,GI50,SN12C,0.0565 µM (active)
same,GI50,RPMI-8226,0.123 µM (active)
same,GI50,BT-549,0.914 µM (active)
same,GI50,SK-MEL-2,0.368 µM (active)
same,GI50,MDA-MB-435,0.288 µM (active)
same,GI50,OVCAR-4,0.338 µM (active)
same,GI50,NCI-H460,< 0.0194 µM (active)
same,GI50,SK-MEL-5,0.301 µM (active)
same,GI50,U-251,0.219 µM (active)
same,GI50,MCF7,0.0508 µM (active)
same,GI50,CCRF-CEM,0.0923 µM (active)
same,GI50,KM12,0.326 µM (active)
same,GI50,HCT-116,0.049 µM (active)
same,GI50,T47D,0.281 µM (active)
same,GI50,UACC-62,0.0849 µM (active)
same,GI50,ACHN,0.0834 µM (active)
same,GI50,RXF 393,0.18 µM (active)
same,GI50,UO-31,0.15 µM (active)
same,GI50,SF-295,0.225 µM (active)
same,GI50,LOX IMVI,0.147 µM (active)
same,GI50,NCI/ADR-RES,0.267 µM (active)
same,GI50,NCI-H226,0.205 µM (active)
same,GI50,HOP-62,0.233 µM (active)
same,GI50,MDA-N,0.318 µM (active)
same,GI50,A549,0.0581 µM (active)
same,GI50,EKVX,0.361 µM (active)
same,GI50,SF-539,0.382 µM (active)
same,GI50,OVCAR-3,0.556 µM (active)
same,GI50,IGROV-1,0.0942 µM (active)
same,GI50,SNB-19,0.47 µM (active)
CCOC(=O)c1c(N)nn2c1cc1cccccc12,GI50,PC-3,23.6 µM (inactive)
same,GI50,UACC-257,27.4 µM (inactive)
same,GI50,HCC 2998,30 µM (inactive)
same,GI50,HOP-92,33.5 µM (inactive)
same,GI50,HCT-15,32.3 µM
same,GI50,MDA-MB-231,43 µM (inactive)
same,GI50,OVCAR-8,24.8 µM (inactive)
same,GI50,M14,42.1 µM (inactive)
same,GI50,TK-10,19.5 µM (inactive)
same,GI50,786-0,34.4 µM (inactive)
same,GI50,NCI-H23,29.3 µM (inactive)
same,GI50,CAKI-1,27.9 µM (inactive)
same,GI50,Malme-3M,27.8 µM (inactive)
same,GI50,SK-MEL-28,29.9 µM (inactive)
same,GI50,COLO 205,31.9 µM (inactive)
same,GI50,Hs-578T,29.9 µM (inactive)
same,GI50,SW-620,32.5 µM (inactive)
same,GI50,SK-OV-3,26.8 µM (inactive)
same,GI50,DU-145,32.1 µM (inactive)
same,GI50,MOLT-4,25.7 µM (inactive)
same,GI50,HT-29,36.2 µM (inactive)
same,GI50,A498,29.4 µM (inactive)
same,GI50,SF-268,24.5 µM (inactive)
same,GI50,OVCAR-5,59.8 µM (inactive)
same,GI50,NCI-H522,20.1 µM (inactive)
same,GI50,HL-60,32.5 µM (inactive)
same,GI50,SN12C,32.9 µM (inactive)
same,GI50,RPMI-8226,18.3 µM (inactive)
same,GI50,BT-549,25.3 µM (inactive)
same,GI50,SK-MEL-2,19.1 µM (inactive)
same,GI50,MDA-MB-435,31.8 µM (inactive)
same,GI50,OVCAR-4,33.6 µM (inactive)
same,GI50,NCI-H460,20.1 µM (inactive)
same,GI50,SK-MEL-5,26.1 µM (inactive)
same,GI50,U-251,24 µM (inactive)
same,GI50,MCF7,16 µM (inactive)
same,GI50,CCRF-CEM,43.5 µM (inactive)
same,GI50,KM12,20.8 µM (inactive)
same,GI50,HCT-116,33.5 µM (inactive)
same,GI50,T47D,22.6 µM (inactive)
same,GI50,UACC-62,23.6 µM (inactive)
same,GI50,ACHN,27.9 µM (inactive)
same,GI50,RXF 393,6.14 µM (inactive)
same,GI50,SF-295,25.1 µM (inactive)
same,GI50,LOX IMVI,25.1 µM (inactive)
same,GI50,NCI/ADR-RES,25.9 µM (inactive)
same,GI50,HOP-62,29.8 µM (inactive)
same,GI50,MDA-N,41.5 µM (inactive)
same,GI50,A549,36.8 µM (inactive)
same,GI50,EKVX,16.3 µM (inactive)
same,GI50,SF-539,51.5 µM (inactive)
same,GI50,OVCAR-3,28.2 µM (inactive)
same,GI50,IGROV-1,27.9 µM (inactive)
same,GI50,SNB-19,40.7 µM (inactive)
